The text below walks through data of US12570650B2, “6-substituted pyridazine compounds as SMARCA2 and/or SMARCA4 degraders” (Aurigene Oncology Limited, priority 2020, dated 2026).

pEC50: −log10 of the molar value.

What all share (assay type): cell-based
The target in one experiment is T1, SMARCA2 (Homo sapiens, UniProt P51531).
T1 construct: Determination of SMARCA2 and SMARCA4 Degradation in VCaP Cells by Western Blot; endogenous in cells; host or cells: VCaP (ATCC CRL-2876)
Briefly: SMARCA2 degradation in VCaP cells by Western blot. The following applies: 16 hours. The procedure, abridged:
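VCaP cells were treated with compound for 16 hours, with DMSO at no more than 0.3% final. Lysates were immunoblotted for SMARCA2, using beta-tubulin as loading control. % degradation = 100 − (normalized band intensity treated/normalized band intensity DMSO)×100.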
Background: In western blotting, separated proteins are transferred to a membrane and probed.

The target of a further experiment is T2, SMARCA4 (Homo sapiens, UniProt P51532).
T2 construct: Determination of SMARCA2 and SMARCA4 Degradation in VCaP Cells by Western Blot; endogenous in cells; host or cells: VCaP (ATCC CRL-2876)
T2 sequence (P51532 whole entry): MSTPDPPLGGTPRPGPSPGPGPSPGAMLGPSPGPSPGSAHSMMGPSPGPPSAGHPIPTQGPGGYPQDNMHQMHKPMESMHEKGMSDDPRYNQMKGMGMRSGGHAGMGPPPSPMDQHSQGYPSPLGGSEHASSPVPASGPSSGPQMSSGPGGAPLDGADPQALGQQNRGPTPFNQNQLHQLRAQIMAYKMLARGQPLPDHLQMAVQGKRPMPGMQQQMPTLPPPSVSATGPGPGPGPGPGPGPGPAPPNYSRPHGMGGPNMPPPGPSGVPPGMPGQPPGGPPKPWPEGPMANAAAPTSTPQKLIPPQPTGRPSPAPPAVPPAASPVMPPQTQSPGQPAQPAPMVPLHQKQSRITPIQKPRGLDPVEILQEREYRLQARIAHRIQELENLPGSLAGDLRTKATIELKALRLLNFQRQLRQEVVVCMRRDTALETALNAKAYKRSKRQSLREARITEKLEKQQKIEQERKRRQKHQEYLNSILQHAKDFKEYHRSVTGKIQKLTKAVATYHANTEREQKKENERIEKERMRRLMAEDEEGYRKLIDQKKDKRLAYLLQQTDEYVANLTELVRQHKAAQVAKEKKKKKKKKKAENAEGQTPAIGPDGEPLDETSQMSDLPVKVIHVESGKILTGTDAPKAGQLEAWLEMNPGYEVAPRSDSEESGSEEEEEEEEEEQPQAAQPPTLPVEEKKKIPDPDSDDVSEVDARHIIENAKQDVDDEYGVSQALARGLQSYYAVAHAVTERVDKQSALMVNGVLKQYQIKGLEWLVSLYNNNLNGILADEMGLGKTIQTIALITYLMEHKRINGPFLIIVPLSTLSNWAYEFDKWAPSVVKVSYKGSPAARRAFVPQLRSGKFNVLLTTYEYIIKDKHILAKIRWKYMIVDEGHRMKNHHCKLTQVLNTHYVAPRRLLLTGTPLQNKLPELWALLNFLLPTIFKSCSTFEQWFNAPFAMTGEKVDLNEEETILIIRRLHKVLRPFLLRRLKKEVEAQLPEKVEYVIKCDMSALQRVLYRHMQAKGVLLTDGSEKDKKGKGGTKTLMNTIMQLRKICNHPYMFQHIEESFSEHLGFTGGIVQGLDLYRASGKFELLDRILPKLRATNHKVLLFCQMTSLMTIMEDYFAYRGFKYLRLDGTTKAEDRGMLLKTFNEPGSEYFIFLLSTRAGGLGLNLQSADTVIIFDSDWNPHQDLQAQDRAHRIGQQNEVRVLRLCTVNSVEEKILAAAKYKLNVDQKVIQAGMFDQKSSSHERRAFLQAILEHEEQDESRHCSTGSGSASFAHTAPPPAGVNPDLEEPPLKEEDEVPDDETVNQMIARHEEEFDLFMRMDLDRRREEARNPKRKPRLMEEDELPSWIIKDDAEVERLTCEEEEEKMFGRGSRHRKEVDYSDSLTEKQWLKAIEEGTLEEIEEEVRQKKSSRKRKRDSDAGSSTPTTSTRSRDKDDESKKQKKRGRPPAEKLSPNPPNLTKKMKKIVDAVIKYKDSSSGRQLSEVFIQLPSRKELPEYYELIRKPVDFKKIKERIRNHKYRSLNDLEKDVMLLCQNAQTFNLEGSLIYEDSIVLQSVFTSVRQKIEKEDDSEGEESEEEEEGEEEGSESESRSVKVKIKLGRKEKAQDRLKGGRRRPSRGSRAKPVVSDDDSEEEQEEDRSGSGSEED
Put plainly: SMARCA4 degradation in VCaP cells by Western blot. The settings on record: 16 hours. The procedure, abridged:
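VCaP cells treated with compounds diluted from DMSO stocks, final DMSO ≤0.3%; equal protein analysed by SDS-PAGE Western blot. Degradation = 100 − (normalized SMARCA4 band in treated/DMSO sample)×100.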

The test system of another experiment is SK-MEL-5 cells. Briefly: Anti proliferative activity, Cell Titer Glo assay, SK-MEL-5. The settings on record: Homo sapiens, SK-MEL-5, SK-MEL-5 cells, retreatment Day 4, terminated day 8, CellTiter-Glo. Here is the method: (§1) Example-P3: Determination of Anti Proliferative Activity of Compounds by Cell Titer Glo®(Promega) Assay
(§2) Cells were seeded into 96-well plates and the plate was incubated in 37 degrees incubator overnight. The next day, compounds were diluted 3-fold to cover 9-point concentration range in DMSO. Intermediate plate dilution was prepared in media followed with compound treatment in cells. Retreatment of cells with compound dilutions was performed on Day 4 and assay was terminated on day 8 for SK-MEL-5 cells using CellTiter-Glo and the plate was kept on orbital shaker for 20 minutes at RT. Assay was terminated on day 6 for RERF-LC-A1 without a compound retreatment. Luminescence signal was recorded on VICTOR^3 instrument. Percent inhibition of proliferation was calculated at each concentration and plotted against the compound concentration. EC50 value was calculated using GraphPad software.
Background: Cellular ATP, detected with luciferase, serves as a proxy for viable cell number.

Another experiment concerns RERF-LC-A1 cell line. Put plainly: Anti proliferative activity, Cell Titer Glo assay, RERF-LC-A1. The settings on record: 144 h; RERF-LC-A1 cells, terminated day 6 without retreatment, CellTiter-Glo. As to the method:
as §1, §2
Herein the group “++” refers to EC50 (RERF-LC-A1) values lower than 100 nM and “+” refers to EC50 (RERF-LC-A1) values greater than 100 nM.

T1 sequence (P51531 whole entry): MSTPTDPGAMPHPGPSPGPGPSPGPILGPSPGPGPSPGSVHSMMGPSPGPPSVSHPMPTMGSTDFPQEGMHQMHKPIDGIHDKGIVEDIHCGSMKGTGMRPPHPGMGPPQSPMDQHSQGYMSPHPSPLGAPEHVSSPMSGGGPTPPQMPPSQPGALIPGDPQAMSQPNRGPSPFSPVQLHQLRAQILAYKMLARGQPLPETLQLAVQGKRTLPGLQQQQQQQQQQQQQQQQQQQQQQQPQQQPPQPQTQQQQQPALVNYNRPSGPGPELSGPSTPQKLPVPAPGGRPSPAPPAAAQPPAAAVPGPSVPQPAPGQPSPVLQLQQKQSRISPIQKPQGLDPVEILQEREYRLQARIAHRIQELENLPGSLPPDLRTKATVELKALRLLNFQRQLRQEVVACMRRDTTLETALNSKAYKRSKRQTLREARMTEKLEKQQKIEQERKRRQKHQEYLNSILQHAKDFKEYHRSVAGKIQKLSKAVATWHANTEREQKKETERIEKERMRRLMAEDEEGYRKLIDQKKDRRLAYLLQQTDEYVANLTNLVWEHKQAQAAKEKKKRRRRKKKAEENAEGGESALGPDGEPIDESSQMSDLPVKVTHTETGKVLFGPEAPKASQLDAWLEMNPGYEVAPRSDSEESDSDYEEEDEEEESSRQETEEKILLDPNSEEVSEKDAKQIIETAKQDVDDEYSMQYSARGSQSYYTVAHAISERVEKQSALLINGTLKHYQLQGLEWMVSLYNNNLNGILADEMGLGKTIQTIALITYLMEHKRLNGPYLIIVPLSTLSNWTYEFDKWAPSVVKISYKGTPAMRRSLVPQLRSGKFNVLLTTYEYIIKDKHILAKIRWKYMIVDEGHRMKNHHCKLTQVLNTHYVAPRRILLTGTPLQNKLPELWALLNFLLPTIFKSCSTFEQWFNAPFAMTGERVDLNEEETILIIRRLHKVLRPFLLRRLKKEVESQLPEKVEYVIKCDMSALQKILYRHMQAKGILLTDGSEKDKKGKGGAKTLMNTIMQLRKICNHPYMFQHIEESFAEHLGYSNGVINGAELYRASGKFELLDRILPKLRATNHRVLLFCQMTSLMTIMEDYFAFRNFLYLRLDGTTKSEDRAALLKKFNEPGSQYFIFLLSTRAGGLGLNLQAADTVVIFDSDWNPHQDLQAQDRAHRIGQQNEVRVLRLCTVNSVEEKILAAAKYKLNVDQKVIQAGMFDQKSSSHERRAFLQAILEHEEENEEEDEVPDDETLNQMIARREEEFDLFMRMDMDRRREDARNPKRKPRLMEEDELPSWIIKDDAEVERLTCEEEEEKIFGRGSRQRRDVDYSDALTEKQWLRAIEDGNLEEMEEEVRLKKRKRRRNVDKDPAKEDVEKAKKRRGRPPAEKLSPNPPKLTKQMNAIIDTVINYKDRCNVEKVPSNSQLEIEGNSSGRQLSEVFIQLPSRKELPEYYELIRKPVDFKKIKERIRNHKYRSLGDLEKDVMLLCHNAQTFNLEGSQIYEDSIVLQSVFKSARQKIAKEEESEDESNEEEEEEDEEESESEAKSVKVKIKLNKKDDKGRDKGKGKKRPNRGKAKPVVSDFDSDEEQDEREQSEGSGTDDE

One may read the pEC50 as the EC50 on a negative log10 scale, so that one unit is a factor of ten. A high value points to a low EC50. With `Cc1ncsc1-c1ccc([C@H](C)NC(=O)[C@@H]2C[C@@H](O)CN2C(=O)[C@@H](NC(=O)CN2CCC(c3ccc(-c4cnnc(-c5ccccc5O)c4)cc3)CC2)C(C)(C)C)cc1` [Compound 11, (2S,4R)-4-hydroxy-1-((S)-2-(2-(4-(4-(6-(2-hydroxyphenyl)pyridazin-4-yl)phenyl)piperidin-1-yl)acetamido)-3,3-dimethylbutanoyl)-N-((S)-1-(4-(4-methylthiazol-5-yl)phenyl)ethyl)pyrrolidine-2-carboxamide], the “Percent degradation (at 100 nM) SMARCA2” value on SMARCA2 is listed as 91%. The “Percent degradation (at 100 nM) SMARCA4” value on SMARCA4 came out at 0%. Moreover, the pEC50 is more than 6.60 with SK-MEL-5 cells and more than 7.00 with RERF-LC-A1 cell line.

On to `Cc1ncsc1-c1ccc(CNC(=O)[C@@H]2C[C@@H](O)CN2C(=O)[C@@H](NC(=O)CN2CCC(c3ccc(-c4cnnc(-c5ccccc5O)c4)cc3)CC2)C(C)(C)C)cc1` [Compound 12, (2S,4R)-4-hydroxy-1-((S)-2-(2-(4-(4-(6-(2-hydroxyphenyl)pyridazin-4-yl)phenyl)piperidin-1-yl)acetamido)-3,3-dimethylbutanoyl)-N-(4-(4-methylthiazol-5-yl)benzyl)pyrrolidine-2-carboxamide], for which the “Percent degradation (at 100 nM) SMARCA2” value on SMARCA2 is on record as 75%. For the same compound, on SMARCA4, the “Percent degradation (at 100 nM) SMARCA4” value was 0%. Further, the values for the negative logarithm of the EC50 (pEC50) in the experiment on SK-MEL-5 cells and with RERF-LC-A1 cell line were less than 6.30 and more than 7.00, respectively.

`Cc1ncsc1-c1ccc([C@H](C)NC(=O)[C@@H]2C[C@@H](O)CN2C(=O)[C@@H](NC(=O)CN2CCN(c3ccc(-c4cnnc(-c5ccccc5O)c4)cn3)CC2)C(C)(C)C)cc1` [Compound 5, (2S,4R)-4-hydroxy-1-((S)-2-(2-(4-(5-(6-(2-hydroxyphenyl)pyridazin-4-yl)pyridin-2-yl)piperazin-1-yl)acetamido)-3,3-dimethylbutanoyl)-N-((S)-1-(4-(4-methylthiazol-5-yl)phenyl)ethyl)pyrrolidine-2-carboxamide]: on SMARCA2, the “Percent degradation (at 100 nM) SMARCA2” value is 94%. Moreover, the “Percent degradation (at 100 nM) SMARCA4” value on SMARCA4 came to 0%. Also, the pEC50 was more than 6.60 with SK-MEL-5 cells and less than 7.00 in the experiment on RERF-LC-A1 cell line.
